{
  "source": "patent US6358885B1",
  "about": "“Substituted phenylheterocyclic herbicides” (Mississippi State University, priority 1992, dated 2002)",
  "key": {"[1]": {"test_system": "wild oat", "assay": "Test B preemergence/postemergence greenhouse plant response rating 0 to 10", "type": "in vivo, Avena fatua", "conditions": "POSTEMERGENCE, 0 to 10 scale", "method_in_brief": "(§1)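 Both application timings were run together: seeds got compound preemergence, and established seedlings (two to eighteen cm) got it postemergence. Non-phytotoxic solvent carried the chemical. Ratings are visual, versus controls, at twelve to sixteen days.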"}, "[2]": {"test_system": "blackgrass", "assay": "Test B preemergence/postemergence greenhouse plant response rating 0 to 10", "type": "in vivo, Alopecurus myosuroides", "conditions": "for Plant response rating, Blackgrass: 0 to 10 scale", "method_in_brief": "as §1"}, "[3]": {"test_system": "sugar beet", "assay": "Test B preemergence/postemergence greenhouse plant response rating 0 to 10", "type": "in vivo, Beta vulgaris", "conditions": "0 to 10 scale", "method_in_brief": "as §1"}, "[4]": {"test_system": "cocklebur", "assay": "Test B preemergence/postemergence greenhouse plant response rating 0 to 10", "type": "in vivo, Xanthium pensylvanicum", "conditions": "for Plant response rating, Cocklebur: 0 to 10 scale", "method_in_brief": "as §1"}, "[5]": {"test_system": "wheat", "assay": "Test C preemergence/postemergence greenhouse plant response rating 0 to 100", "type": "in vivo, Triticum aestivum", "conditions": "POSTEMERGENCE; for Plant response rating, Wheat: 0 to 100 scale", "method_in_brief": "(§2)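 Compounds in non-phytotoxic solvent went onto sandy loam before emergence (seeded one day earlier) or onto plants at the one-to-four leaf stage. Duck salad was treated via flood water (~2.5 cm, maintained) over silt loam.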"}, "[6]": {"test_system": "bedstraw", "assay": "Test B preemergence/postemergence greenhouse plant response rating 0 to 10", "type": "in vivo, Galium aparine", "conditions": "for Plant response rating, Bedstraw: 0 to 10 scale", "method_in_brief": "as §1"}, "[7]": {"test_system": "barnyardgrass", "assay": "Test C flood test plant response rating 0 to 100", "type": "in vivo, Echinochloa crus-galli", "conditions": "for Plant response rating (0 to 100), Barnyardgrass: under POSTEMERGENCE head (flood test species); for Plant response rating, Barnyardgrass: flood test species listed under POSTEMERGENCE, 0 to 100 scale", "method_in_brief": "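Compounds in non-phytotoxic solvent applied preemergence to sandy loam one day after planting, postemergence at the 1–4 leaf stage, or to ~2.5 cm floodwater over silt loam.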"}, "[8]": {"test_system": "cotton", "assay": "Test C preemergence/postemergence greenhouse plant response rating 0 to 100", "type": "in vivo, Gossypium hirsutum", "conditions": "POSTEMERGENCE; for Plant response rating, Cotton: 0 to 100 scale", "method_in_brief": "as §2"}, "[9]": {"test_system": "pigweed", "assay": "Test C preemergence/postemergence greenhouse plant response rating 0 to 100", "type": "in vivo, Amaranthusretroflexus", "conditions": "POSTEMERGENCE; for Plant response rating Pigweed: 0 to 100 scale", "method_in_brief": "as §2"}, "[10]": {"test_system": "morningglory", "assay": "Test B preemergence/postemergence greenhouse plant response rating 0 to 10", "type": "in vivo, Ipomoea hederacea", "conditions": "0 to 10 scale", "method_in_brief": "as §1"}, "[11]": {"test_system": "ryegrass", "assay": "Test C preemergence/postemergence greenhouse plant response rating 0 to 100", "type": "in vivo, Lolium multiflorum", "conditions": "POSTEMERGENCE; for Plant response rating Ryegrass: 0 to 100 scale", "method_in_brief": "as §2"}, "[12]": {"test_system": "sandbur", "assay": "Test G preemergence/postemergence greenhouse plant response rating 0 to 100", "type": "in vivo, Cenchrus echinatus", "conditions": "0 to 100 scale", "method_in_brief": "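Pre- and postemergence treatments used compound in non-phytotoxic solvent on potted greenhouse plants grown from seed, rhizome or plant part. Postemergence plants were at the 2–4 leaf stage; damage was assessed by eye versus untreated pots after 13–21 days.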"}, "[13]": {"test_system": "blackgrass", "assay": "Test C preemergence/postemergence greenhouse plant response rating 0 to 100", "type": "in vivo, Alopecurus myosuroides", "conditions": "POSTEMERGENCE; for Plant response rating, Blackgrass: 0 to 100 scale", "method_in_brief": "as §2"}},
  "data": [
    {"smiles": "COc1cc(-c2nn3c(c2Cl)CCCC3)c(F)cc1Cl", "note": "[Compound 29]", "values": [
      {"measurement": "Plant response rating, Wild oat", "setting": "[1]; Rate 50 g/ha", "result": 5},
      {"measurement": "Plant response rating, Wild oat", "setting": "[1]; Rate 200 g/ha", "result": 7},
      {"measurement": "Plant response rating (0 to 10 scale), Blackgrass", "setting": "[2]; POSTEMERGENCE, Rate 50 g/ha", "result": 3},
      {"measurement": "Plant response rating, Blackgrass", "setting": "[2]; POSTEMERGENCE, Rate 200 g/ha", "result": 6},
      {"measurement": "Plant response rating, Blackgrass", "setting": "[2]; PREEMERGENCE, Rate 50 g/ha", "result": 5},
      {"measurement": "Plant response rating, Blackgrass", "setting": "[2]; Rate 200 g/ha, PREEMERGENCE", "result": 7},
      {"measurement": "Plant response rating, Sugar beet", "setting": "[3]; POSTEMERGENCE, Rate 50 g/ha", "result": 10},
      {"measurement": "Plant response rating, Sugar beet", "setting": "[3]; PREEMERGENCE, Rate 50 g/ha", "result": 7},
      {"measurement": "Plant response rating, Sugar beet", "setting": "[3]; Rate 200 g/ha, POSTEMERGENCE", "result": 10},
      {"measurement": "Plant response rating, Sugar beet", "setting": "[3]; Rate 200 g/ha, PREEMERGENCE", "result": 10},
      {"measurement": "Plant response rating (0 to 10 scale), Cocklebur", "setting": "[4]; POSTEMERGENCE, Rate 50 g/ha", "result": 6},
      {"measurement": "Plant response rating, Cocklebur", "setting": "[4]; POSTEMERGENCE, Rate 200 g/ha", "result": 10},
      {"measurement": "Plant response rating, Cocklebur", "setting": "[4]; PREEMERGENCE, Rate 50 g/ha", "result": 2},
      {"measurement": "Plant response rating, Cocklebur", "setting": "[4]; Rate 200 g/ha, PREEMERGENCE", "result": 4},
      {"measurement": "Plant response rating, Wheat", "setting": "[5]; 62 g/ha", "result": 80},
      {"measurement": "Plant response rating, Wheat", "setting": "[5]; 250 g/ha", "result": 95},
      {"measurement": "Plant response rating (0 to 100), Wheat", "setting": "[5]; Rate 4 g/ha", "result": 20},
      {"measurement": "Plant response rating (0 to 100), Wheat", "setting": "[5]; Rate 16 g/ha", "result": 30},
      {"measurement": "Plant response rating (0 to 10 scale), Bedstraw", "setting": "[6]; POSTEMERGENCE, Rate 50 g/ha", "result": 7},
      {"measurement": "Plant response rating, Bedstraw", "setting": "[6]; POSTEMERGENCE, Rate 200 g/ha", "result": 10},
      {"measurement": "Plant response rating, Bedstraw", "setting": "[6]; PREEMERGENCE, Rate 50 g/ha", "result": 7},
      {"measurement": "Plant response rating, Bedstraw", "setting": "[6]; Rate 200 g/ha, PREEMERGENCE", "result": 9},
      {"measurement": "Plant response rating (0 to 100), Barnyardgrass", "setting": "[7]; Rate 4 g/ha", "result": 100},
      {"measurement": "Plant response rating (0 to 100), Barnyardgrass", "setting": "[7]; Rate 16 g/ha", "result": 100},
      {"measurement": "Plant response rating, Barnyardgrass", "setting": "[7]; 62 g/ha", "result": 100},
      {"measurement": "Plant response rating, Barnyardgrass", "setting": "[7]; 250 g/ha", "result": 100},
      {"measurement": "Plant response rating, Cotton", "setting": "[8]; 62 g/ha", "result": 100},
      {"measurement": "Plant response rating, Cotton", "setting": "[8]; 250 g/ha", "result": 100},
      {"measurement": "Plant response rating (0 to 100), Cotton", "setting": "[8]; Rate 4 g/ha", "result": 100},
      {"measurement": "Plant response rating (0 to 100), Cotton", "setting": "[8]; Rate 16 g/ha", "result": 100},
      {"measurement": "Plant response rating Pigweed", "setting": "[9]; 62 g/ha", "result": 100},
      {"measurement": "Plant response rating Pigweed", "setting": "[9]; 250 g/ha", "result": 100},
      {"measurement": "Plant response rating (0 to 100), Pigweed", "setting": "[9]; Rate 4 g/ha", "result": 50},
      {"measurement": "Plant response rating (0 to 100), Pigweed", "setting": "[9]; Rate 16 g/ha", "result": 100},
      {"measurement": "Plant response rating, Morningglory", "setting": "[10]; POSTEMERGENCE, Rate 50 g/ha", "result": 8},
      {"measurement": "Plant response rating, Morningglory", "setting": "[10]; PREEMERGENCE, Rate 50 g/ha", "result": 2},
      {"measurement": "Plant response rating, Morningglory", "setting": "[10]; Rate 200 g/ha, POSTEMERGENCE", "result": 10},
      {"measurement": "Plant response rating, Morningglory", "setting": "[10]; Rate 200 g/ha, PREEMERGENCE", "result": 5},
      {"measurement": "Plant response rating Ryegrass", "setting": "[11]; 62 g/ha", "result": 70},
      {"measurement": "Plant response rating Ryegrass", "setting": "[11]; 250 g/ha", "result": 90},
      {"measurement": "Plant response rating (0 to 100), Ryegrass", "setting": "[11]; Rate 4 g/ha", "result": 30},
      {"measurement": "Plant response rating (0 to 100), Ryegrass", "setting": "[11]; Rate 16 g/ha", "result": 60},
      {"measurement": "Plant response rating, S. Sandbur", "setting": "[12]; POSTEMERGENCE, Rate 125 g/ha", "result": 0},
      {"measurement": "Plant response rating, S. Sandbur", "setting": "[12]; POSTEMERGENCE, Rate 250 g/ha", "result": 0},
      {"measurement": "Plant response rating, S. Sandbur", "setting": "[12]; PREEMERGENCE, Rate 125 g/ha", "result": 0},
      {"measurement": "Plant response rating, S. Sandbur", "setting": "[12]; PREEMERGENCE, Rate 250 g/ha", "result": 0},
      {"measurement": "Plant response rating, Blackgrass", "setting": "[13]; 62 g/ha", "result": 50},
      {"measurement": "Plant response rating, Blackgrass", "setting": "[13]; 250 g/ha", "result": 90},
      {"measurement": "Plant response rating (0 to 100), Blackgrass", "setting": "[13]; Rate 4 g/ha", "result": 20},
      {"measurement": "Plant response rating (0 to 100), Blackgrass", "setting": "[13]; Rate 16 g/ha", "result": 30}
    ]}
  ]
}
